Laboratory results published in ChEMBL document CHEMBL4842327, “Cyclic mimetics of kinase-inhibitory region of Suppressors of Cytokine Signaling 1: Progress toward novel anti-inflammatory therapeutics” (Eur J Med Chem, 2021).
pKd: −log10 of the molar value. Activity calls are given as the source filed them. The rule behind the calls is not given here. Peptide text beside a SMILES is read from it. * marks the point of attachment. Acm = CC(=O)NC*

Key:
[1] = Stability of the compound in 25% fetal calf serum assessed as residual parent compound level at 80 uM measured after 42 hrs by RP-HPLC analysis; type: ADME, cell-free, Bos taurus; settings: cattle, read-out: Stabilty
[2] = Cytotoxicity against mouse VSMC cells assessed as reduction in cell proliferation at 25 uM incubated for 24 hrs in DMEM medium containing 10% FBS by MTT assay; type: cell-based
[3] = Stability of the compound in 25% fetal calf serum assessed as enzyme-mediated compound degradation at 80 uM measured after 24 hrs by RP-HPLC analysis; type: ADME, cell-free, Bos taurus; settings: cattle, read-out: Drug degradation
[4] = Cytotoxicity against mouse VSMC cells assessed as reduction in cell viability at 25 uM incubated for 6 to 24 hrs in DMEM medium containing 0.5% FBS by MTT assay; type: cell-based; settings: time 6-24 hrs
[5] = tested on: VSMC; assay: Inhibition of IFN-gamma/IL6-induced cell migration in mouse VSMC cells incubated for 45 hrs by scratch wound healing assay; type: functional, cell-based
[6] = target: Tyrosine-protein kinase JAK2 (Mus musculus) (UniProt Q62120); assay: Inhibition of JAK2 in mouse VSMC cells assessed as reduction in IFNgamma/IL6 induced STAT1 phosphorylation at 5 uM treated for 90 mins prior to cytokine stimulation and measured after 1 hr by DAPI staining based immunofluorescence confocal microscopy; type: cell-based; settings: time 150.0 min
Chain of Tyrosine-protein kinase JAK2 (Mus musculus) (Q62120 whole entry): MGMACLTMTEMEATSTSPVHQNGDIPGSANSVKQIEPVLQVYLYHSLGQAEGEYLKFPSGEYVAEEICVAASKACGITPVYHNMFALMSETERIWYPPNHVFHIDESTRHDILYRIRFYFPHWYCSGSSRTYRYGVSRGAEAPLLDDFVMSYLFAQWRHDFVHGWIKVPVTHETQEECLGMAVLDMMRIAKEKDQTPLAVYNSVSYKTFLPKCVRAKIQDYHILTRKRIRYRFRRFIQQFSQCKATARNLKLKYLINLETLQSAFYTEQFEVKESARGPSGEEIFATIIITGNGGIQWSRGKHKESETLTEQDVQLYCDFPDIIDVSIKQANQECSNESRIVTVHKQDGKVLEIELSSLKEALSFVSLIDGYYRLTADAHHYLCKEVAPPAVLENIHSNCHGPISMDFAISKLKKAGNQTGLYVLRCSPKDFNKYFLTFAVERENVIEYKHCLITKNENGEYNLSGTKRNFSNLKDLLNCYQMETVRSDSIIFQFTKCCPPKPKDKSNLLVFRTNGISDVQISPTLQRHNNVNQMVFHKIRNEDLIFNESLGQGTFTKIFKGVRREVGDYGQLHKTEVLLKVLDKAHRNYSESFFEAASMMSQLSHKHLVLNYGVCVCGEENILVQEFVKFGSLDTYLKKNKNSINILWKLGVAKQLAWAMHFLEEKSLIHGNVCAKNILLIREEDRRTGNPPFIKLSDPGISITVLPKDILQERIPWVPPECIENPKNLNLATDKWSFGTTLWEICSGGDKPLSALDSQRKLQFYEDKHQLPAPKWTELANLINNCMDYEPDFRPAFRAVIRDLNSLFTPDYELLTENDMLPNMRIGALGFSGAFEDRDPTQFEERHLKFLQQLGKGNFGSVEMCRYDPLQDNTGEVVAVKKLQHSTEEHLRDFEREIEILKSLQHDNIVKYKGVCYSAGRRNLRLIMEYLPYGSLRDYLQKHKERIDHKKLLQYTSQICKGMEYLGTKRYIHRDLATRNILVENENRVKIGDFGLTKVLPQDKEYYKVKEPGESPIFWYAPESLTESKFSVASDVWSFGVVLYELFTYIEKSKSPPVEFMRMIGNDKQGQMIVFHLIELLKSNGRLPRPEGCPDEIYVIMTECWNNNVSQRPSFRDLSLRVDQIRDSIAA

[7] = target: Tyrosine-protein kinase JAK2 (Mus musculus) (UniProt Q62120); assay: Inhibition of JAK2 in mouse VSMC cells assessed as reduction in IFNgamma/IL6- induced STAT1 phosphorylation by Western blot analysis; type: cell-based
[8] = target: Tyrosine-protein kinase JAK2 (Mus musculus) (UniProt Q62120); assay: Inhibition of JAK2 in mouse VSMC cells assessed as reduction in IFNgamma/IL6-induced JAK2 phosphorylation by Western blot analysis; type: cell-based
[9] = target: Tyrosine-protein kinase JAK2 (Mus musculus) (UniProt Q62120); assay: Inhibition of JAK2 in mouse VSMC cells assessed as reduction in IFNgamma/IL6-induced Ccl2 mRNA expression by quantitative real time PCR analysis; type: cell-based
[10] = target: Tyrosine-protein kinase JAK2 (Mus musculus) (UniProt Q62120); assay: Inhibition of JAK2 in mouse VSMC cells assessed as reduction in IFNgamma/IL6-induced Ccl5 mRNA expression by quantitative real time PCR analysis; type: cell-based
[11] = target: Tyrosine-protein kinase JAK2 (Mus musculus) (UniProt Q62120); assay: Inhibition of JAK2 in mouse VSMC cells assessed as reduction in IFNgamma/IL6-induced Cxcl10 mRNA expression by quantitative real time PCR analysis; type: cell-based
[12] = tested on: VSMC; assay: Antioxidant activity in mouse VSMC cells assessed as reduction in IFNgamma/IL6-induced intracellular superoxide generation by DHE staining based fluorescence confocal microscopy analysis; type: functional, cell-based
[13] = tested on: RAW264.7; assay: Antioxidant activity in mouse RAW264.7 cells assessed as reduction in IFNgamma/IL6-induced intracellular superoxide generation by DHE staining based fluorescence confocal microscopy analysis; type: functional, cell-based
[14] = tested on: VSMC; assay: Antioxidant activity in IFNgamma/IL6-stimulated mouse VSMC cells assessed as reduction in Nox1 mRNA expression by quantitative real time PCR analysis; type: functional, cell-based
[15] = tested on: VSMC; assay: Antioxidant activity in IFNgamma/IL6-stimulated mouse VSMC cells assessed as reduction in Nox4 mRNA expression by quantitative real time PCR analysis; type: functional, cell-based
[16] = tested on: VSMC; assay: Antioxidant activity in IFNgamma/IL6-stimulated mouse VSMC cells assessed as upregulation of Sod1 mRNA expression by quantitative real time PCR analysis; type: functional, cell-based
[17] = tested on: VSMC; assay: Antioxidant activity in IFNgamma/IL6-stimulated mouse VSMC cells assessed as upregulation of catalase mRNA expression by quantitative real time PCR analysis; type: functional, cell-based
[18] = target: Tyrosine-protein kinase JAK2 (Homo sapiens, UniProt O60674); assay: Binding affinity to N-terminal His-tagged human JAK2 catalytic domain (826 to 1132 residues) expressed in baculovirus-infected Sf21 cells by Microscale thermophoresis analysis
Chain of Tyrosine-protein kinase JAK2 (O60674 whole entry, the tested form may be a part): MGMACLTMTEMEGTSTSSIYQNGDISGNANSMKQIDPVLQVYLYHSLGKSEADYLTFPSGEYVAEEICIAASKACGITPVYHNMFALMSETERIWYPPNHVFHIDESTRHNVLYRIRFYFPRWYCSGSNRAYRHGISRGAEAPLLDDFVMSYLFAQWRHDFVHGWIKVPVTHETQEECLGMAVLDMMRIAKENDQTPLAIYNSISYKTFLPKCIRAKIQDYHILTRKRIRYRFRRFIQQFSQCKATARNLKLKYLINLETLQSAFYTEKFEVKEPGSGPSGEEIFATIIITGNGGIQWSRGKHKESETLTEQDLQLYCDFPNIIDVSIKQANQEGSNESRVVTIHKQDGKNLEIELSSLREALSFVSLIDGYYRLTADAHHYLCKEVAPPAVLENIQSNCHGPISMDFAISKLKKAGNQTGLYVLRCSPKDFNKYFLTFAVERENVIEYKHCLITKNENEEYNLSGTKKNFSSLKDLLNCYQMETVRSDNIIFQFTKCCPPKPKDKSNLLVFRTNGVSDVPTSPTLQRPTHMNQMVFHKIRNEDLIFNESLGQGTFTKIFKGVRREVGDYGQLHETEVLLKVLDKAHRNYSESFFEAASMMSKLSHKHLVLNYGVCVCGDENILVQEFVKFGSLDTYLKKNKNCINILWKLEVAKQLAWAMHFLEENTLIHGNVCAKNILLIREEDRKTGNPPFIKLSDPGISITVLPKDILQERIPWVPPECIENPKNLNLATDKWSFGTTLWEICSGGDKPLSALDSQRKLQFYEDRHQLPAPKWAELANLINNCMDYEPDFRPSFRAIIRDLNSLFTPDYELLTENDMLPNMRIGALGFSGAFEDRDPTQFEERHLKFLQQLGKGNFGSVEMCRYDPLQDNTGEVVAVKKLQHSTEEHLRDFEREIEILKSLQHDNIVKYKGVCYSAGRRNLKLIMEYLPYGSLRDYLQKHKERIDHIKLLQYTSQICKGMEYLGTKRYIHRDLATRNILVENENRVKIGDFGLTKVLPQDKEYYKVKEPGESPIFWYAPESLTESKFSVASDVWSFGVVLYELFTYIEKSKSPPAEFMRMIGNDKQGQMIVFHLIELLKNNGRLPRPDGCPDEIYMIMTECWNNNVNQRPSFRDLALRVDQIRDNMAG

[19] = target: Tyrosine-protein kinase JAK2 (Mus musculus) (UniProt Q62120); assay: Inhibition of JAK2 in mouse VSMC cells assessed as reduction in IFN-gamma/IL6 induced STAT1 nuclear translocation at 5 uM treated for 90 mins prior to cytokine stimulation and measured after 1 hr by DAPI staining based immunofluorescence confocal microscopy; type: cell-based; settings: time 150.0 min
[20] = target: Tyrosine-protein kinase JAK2 (Mus musculus) (UniProt Q62120); assay: Inhibition of JAK2 in mouse RAW264.7 cells assessed as reduction in IFNgamma/IL6-induced Ccl2 mRNA expression by quantitative real time PCR analysis; type: cell-based
[21] = target: Tyrosine-protein kinase JAK2 (Mus musculus) (UniProt Q62120); assay: Inhibition of JAK2 in mouse RAW264.7 cells assessed as reduction in IFNgamma/IL6-induced Ccl5 mRNA expression by quantitative real time PCR analysis; type: cell-based
[22] = target: Tyrosine-protein kinase JAK2 (Mus musculus) (UniProt Q62120); assay: Inhibition of JAK2 in mouse RAW264.7 cells assessed as reduction in IFNgamma/IL6-induced Cxcl10 mRNA expression by quantitative real time PCR analysis; type: cell-based

For `CC(=O)NCSC[C@@H]1NC(=O)[C@H]([C@@H](C)O)NC(=O)[C@@H](NC(C)=O)CC(=O)NCCCC[C@@H](C(=O)N[C@@H](Cc2cnc[nH]2)C(N)=O)NC(=O)[C@H](CCCNC(=N)N)NC(=O)[C@H](Cc2cccc3ccccc23)NC(=O)[C@H]([C@@H](C)O)NC(=O)[C@H](CCC(N)=O)NC(=O)[C@H](CCCNC(=N)N)NC1=O`, the remaining at 42 h, 80 µM [1] was 40%, the Activity [2] was “Non-Toxic” and the metabolised at 24 h, 80 µM [3] was 20%. For the same compound, the Activity [4] was “Non-Toxic”.
In the case of `CC(=O)NCSC[C@@H]1NC(=O)[C@H]([C@@H](C)O)NC(=O)[C@@H](NC(C)=O)CC(=O)NCCCC[C@@H](C(=O)NC(Cc2cnc[nH]2)C(N)=O)NC(=O)[C@@H](CCCNC(=N)N)NC(=O)[C@H](Cc2ccccc2)NC(=O)[C@H]([C@@H](C)O)NC(=O)[C@H](CCC(N)=O)NC(=O)[C@@H](CCCNC(=N)N)NC1=O` (stereo not given in full), the inhibition [5] was “Active”, the inhibition [6] was 65% and the inhibition [7] was “Active”. For the same compound, the inhibition [8] was “Active”, the inhibition [9] was “Active” and the inhibition [10] was “Active”. For the same compound, the inhibition [11] was “Active”, the Activity [12] was “Active” and the Activity [13] was “Active”. The Activity [14] was “Active”, the Activity [15] was “Active” and the Activity [16] was “Active”. The Activity [17] was “Active”, the pKd [18] was 4.36 and the inhibition [19] was 65%. The inhibition [20] was “Active”, the inhibition [21] was “Active” and the inhibition [22] was “Active”.
For `CC(=O)NCSC[C@H](NC(=O)[C@@H](NC(=O)[C@H](CC(=O)O)NC(C)=O)[C@@H](C)O)C(=O)N[C@@H](CCCNC(=N)N)C(=O)N[C@@H](CCC(N)=O)C(=O)N[C@H](C(=O)N[C@@H](Cc1ccccc1)C(=O)N[C@@H](CCCNC(=N)N)C(=O)N[C@@H](CO)C(=O)N[C@@H](Cc1cnc[nH]1)C(=O)O)[C@@H](C)O` (Ac-DTC(Acm)RQTFRSH-OH), the Activity [2] was “Non-Toxic”, the inhibition [7] was “Active” and the inhibition [8] was “Active”. The inhibition [9] was “Active”, the inhibition [10] was “Active” and the inhibition [11] was “Active”. The Activity [12] was “Active”, the Activity [13] was “Active” and the Activity [14] was “Active”. The Activity [15] was “Active”, the Activity [16] was “Active” and the Activity [17] was “Active”. The metabolised at 24 h, 80 µM [3] was 50%, the Activity [4] was “Non-Toxic” and the inhibition [20] was “Active”. The inhibition [21] was “Active” and the inhibition [22] was “Active”.
With `CC(=O)NCSC[C@@H]1NC(=O)[C@H]([C@@H](C)O)NC(=O)[C@H](NC(C)=O)CC(=O)NCCCC[C@@H](C(=O)NC(Cc2cnc[nH]2)C(N)=O)NC(=O)[C@@H](CCCNC(=N)N)NC(=O)[C@H](Cc2cccc3ccccc23)NC(=O)[C@H]([C@@H](C)O)NC(=O)[C@H](CCC(N)=O)NC(=O)[C@@H](CCCNC(=N)N)NC1=O` (stereo not given in full) the inhibition [5] was “Active”, the inhibition [6] was 65% and the inhibition [7] was “Active”. The inhibition [8] was “Active”, the inhibition [9] was “Active” and the inhibition [10] was “Active”. The inhibition [11] was “Active”, the Activity [12] was “Active” and the Activity [13] was “Active”. For the same compound, the Activity [14] was “Active”, the Activity [15] was “Active” and the Activity [16] was “Active”. The Activity [17] was “Active”, the pKd [18] was 4.46 and the inhibition [19] was 65%. For the same compound, the inhibition [20] was “Active”, the inhibition [21] was “Active” and the inhibition [22] was “Active”.
For `CC(=O)NCSC[C@@H]1NC(=O)[C@H]([C@@H](C)O)NC(=O)[C@@H](NC(C)=O)CC(=O)NCCCC[C@@H](C(=O)N[C@@H](Cc2cnc[nH]2)C(N)=O)NC(=O)[C@H](CCCNC(=N)N)NC(=O)[C@H](Cc2ccccc2)NC(=O)[C@H]([C@@H](C)O)NC(=O)[C@H](CCC(N)=O)NC(=O)[C@H](CCCNC(=N)N)NC1=O`, the Activity [2] was “Non-Toxic”, the metabolised at 24 h, 80 µM [3] was 40% and the Activity [4] was “Non-Toxic”.
